Reference: patent publication US8692017B2, “Carbon linked modulators of gamma-secretase” (Janssen Pharmaceutica, N.V., priority 2007, dated 2014)

These molecules were tested against T1, γ-secretase (Homo sapiens, UniProt P49768) (assay: Screening for γ-secretase-modulating activity (Aβ42 lowering) in SKNBE2 cells carrying the APP 695-wild type). Settings: @ 1 uM; SKNBE2 cells carrying APP 695-wild type; read-out: Aβ % inhibition @ 1 uM.
T1 construct: endogenous in cells; host or cells: SKNBE2 cells carrying APP 695 wild type
Assay type: cell-based
Procedure: Screening was carried out using SKNBE2 cells carrying the APP 695-wild type, grown in DMEM/NUT-mix F12 (HAM) provided by Gibco (cat no. 31330-38) containing 5% Serum/Fe supplemented with 1% non-essential amino acids.
Cells were grown to near confluency.
The screening was performed using the assay as described in Citron et al (1997) Nature Medicine 3: 67.

| Compound | inhibition at 1 µM [%] |
| --- | --- |
| CC(C)CC(C(=O)O)c1cc(/C=C/c2cc(C(F)(F)F)cc(C(F)(F)F)c2)cc(-c2ccc(C(F)(F)F)cc2)c1 (centres unmarked) [Compound 23, 2-{5-[2-(3,5-Bis-trifluoromethyl-phenyl)-vinyl]-4′-trifluoromethyl-biphenyl-3-yl}-4-methyl-pentanoic acid] | 72 |
| CC(C)CC(C(=O)O)c1cc(C(=O)c2ccc(C#N)cc2)cc(-c2ccc(C(F)(F)F)cc2)c1 (centres unmarked) [Compound 8, 2-[5-(4-Cyano-benzoyl)-4′-trifluoromethyl-biphenyl-3-yl]-4-methyl-pentanoic acid] | 25 |
| CC(C)CC(C(=O)O)c1cc(C#Cc2ccc(Cl)cc2)cc(-c2ccc(C(F)(F)F)cc2)c1 (centres unmarked) [Compound 12, 2-[5-(4-Chloro-phenylethynyl)-4′-trifluoromethyl-biphenyl-3-yl]-4-methyl-pentanoic acid] | 18 |
| CC(C)CC(C(=O)O)c1cc(/C=C\c2ccc(Cl)cc2)cc(-c2ccc(C(F)(F)F)cc2)c1 (centres unmarked) [Compound 21, 2-{5-[2-(4-Chloro-phenyl)-vinyl]-4′-trifluoromethyl-biphenyl-3-yl}-4-methyl-pentanoic acid] | 34 |
| CC(C)CC(C(=O)O)c1cc(C#Cc2cc(C(F)(F)F)cc(C(F)(F)F)c2)cc(-c2ccc(C(F)(F)F)cc2)c1 (centres unmarked) [Compound 13, 2-[5-(3,5-Bis-trifluoromethyl-phenylethynyl)-4′-trifluoromethyl-biphenyl-3-yl]-4-methyl-pentanoic acid] | 28 |
| CC(C)CC(C(=O)O)c1cc(C(=O)c2cc(F)cc(F)c2)cc(-c2ccc(C(F)(F)F)cc2)c1 (centres unmarked) [Compound 7, 2-[5-(3,5-Difluoro-benzoyl)-4′-trifluoromethyl-biphenyl-3-yl]-4-methyl-pentanoic acid] | 50 |
| CC(C)CC(C(=O)O)c1cc(C#Cc2cc(F)cc(F)c2)cc(-c2ccc(C(F)(F)F)cc2)c1 (centres unmarked) [Compound 10, 2-[5-(3,5-Difluoro-phenylethynyl)-4′-trifluoromethyl-biphenyl-3-yl]-4-methyl-pentanoic acid] | 53 |
| CC(C)CC(C(=O)O)c1cc(-c2ccc(C(F)(F)F)cc2)cc(C(O)c2cc(F)cc(F)c2)c1 (centres unmarked) [Compound 9, 2-{5-[(3,5-Difluoro-phenyl)-hydroxy-methyl]-4′-trifluoromethyl-biphenyl-3-yl}-4-methyl-pentanoic acid] | 14 |
| CC(C)CC(C(=O)O)c1cc(/C=C\c2ccc(C(F)(F)F)cc2)cc(-c2ccc(C(F)(F)F)cc2)c1 (centres unmarked) [Compound 22, 4-Methyl-2-{4′-trifluoromethyl-5-[2-(4-trifluoromethyl-phenyl)-vinyl]-biphenyl-3-yl}-pentanoic acid] | 46 |
| CC(C)CC(C(=O)O)c1cc(C#Cc2ccc(C(F)(F)F)cc2)cc(-c2ccc(C(F)(F)F)cc2)c1 (centres unmarked) [Compound 11, 4-Methyl-2-[4′-trifluoromethyl-5-(4-trifluoromethyl-phenylethynyl)-biphenyl-3-yl]-pentanoic acid] | 10 |

Same assay, conditions: SKNBE2 cells carrying APP 695-wild type; read-out: Aβ 42 lowering EC50

| Compound | EC50 [nM] |
| --- | --- |
| CC(C)CC(C(=O)O)c1cc(Cc2ccc(F)cc2F)cc(-c2ccc(C(F)(F)F)cc2)c1 (centres unmarked) [Compound 3, 2-[5-(2,4-Difluoro-benzyl)-4′-trifluoromethyl-biphenyl-3-yl]-4-methyl-pentanoic acid] | 2170 |
| COc1ccc(/C=C/c2cc(-c3ccc(C(F)(F)F)cc3)cc(C(CC(C)C)C(=O)O)c2)cc1 (centres unmarked) [Compound 20, 2-{5-[2-(4-Methoxy-phenyl)-vinyl]-4′-trifluoromethyl-biphenyl-3-yl}-4-methyl-pentanoic acid] | 610 |
| CC(C)CC(C(=O)O)c1cc(CCc2ccc(-c3ccccc3)cc2)cc(-c2ccc(C(F)(F)F)cc2)c1 (centres unmarked) [Compound 24, 2-[5-(2-Biphenyl-4-yl-ethyl)-4′-trifluoromethyl-biphenyl-3-yl]-4-methyl-pentanoic acid] | 210 |
| CC(C)CC(C(=O)O)c1cc(/C=C/c2ccc(Cl)cc2)cc(-c2ccc(C(F)(F)F)cc2)c1 (centres unmarked) [Compound 17, 2-{5-[2-(4-Chloro-phenyl)-vinyl]-4′-trifluoromethyl-biphenyl-3-yl}-4-methyl-pentanoic acid] | 360 |
| CC(C)CC(C(=O)O)c1cc(CCc2cc(F)cc(F)c2)cc(-c2ccc(C(F)(F)F)cc2)c1 (centres unmarked) [Compound 29, 2-{5-[2-(3,5-Difluoro-phenyl)-ethyl]-4′-trifluoromethyl-biphenyl-3-yl}-4-methyl-pentanoic acid] | 410 |
| CC(C)CC(C(=O)O)c1cc(/C=C/c2ccc(-c3ccccc3)cc2)cc(-c2ccc(C(F)(F)F)cc2)c1 (centres unmarked) [Compound 14, 2-[5-(2-Biphenyl-4-yl-vinyl)-4′-trifluoromethyl-biphenyl-3-yl]-4-methyl-pentanoic acid] | 150 |
| Cc1ccc(CCc2cc(-c3ccc(C(F)(F)F)cc3)cc(C(CC(C)C)C(=O)O)c2)cc1 (centres unmarked) [Compound 28, 4-Methyl-2-[5-(2-p-tolyl-ethyl)-4′-trifluoromethyl-biphenyl-3-yl]-pentanoic acid] | 350 |
| CC(C)CC(C(=O)O)c1cc(C(=O)c2cc(Cl)cc(Cl)c2)cc(-c2ccc(C(F)(F)F)cc2)c1 (centres unmarked) [Compound 1, 2-[5-(3,5-Dichloro-benzoyl)-4′-trifluoromethyl-biphenyl-3-yl]-4-methyl-pentanoic acid] | 710 |
| CC(C)CC(C(=O)O)c1cc(Cc2cnccc2Cl)cc(-c2ccc(C(F)(F)F)cc2)c1 (centres unmarked) [Compound 4, 2-[5-(4-Chloro-pyridin-3-ylmethyl)-4′-trifluoromethyl-biphenyl-3-yl]-4-methyl-pentanoic acid] | 2750 |
| CC(C)CC(C(=O)O)c1cc(Cc2cccc(C(F)(F)F)c2)cc(-c2ccc(C(F)(F)F)cc2)c1 (centres unmarked) [Compound 5, 4-Methyl-2-[4′-trifluoromethyl-5-(3-trifluoromethyl-benzyl)-biphenyl-3-yl]-pentanoic acid] | 1130 |
| CC(C)CC(C(=O)O)c1cc(/C=C/c2cc(F)cc(F)c2)cc(-c2ccc(C(F)(F)F)cc2)c1 (centres unmarked) [Compound 19, 2-{5-[2-(3,5-Difluoro-phenyl)-vinyl]-4′-trifluoromethyl-biphenyl-3-yl}-4-methyl-pentanoic acid] | 450 |
| CC(C)CC(C(=O)O)c1cc(CCc2ccc(F)cc2)cc(-c2ccc(C(F)(F)F)cc2)c1 (centres unmarked) [Compound 27, 2-{5-[2-(4-Fluoro-phenyl)-ethyl]-4′-trifluoromethyl-biphenyl-3-yl}-4-methyl-pentanoic acid] | 580 |
| CC(C)CC(C(=O)O)c1cc(Cc2cc(Cl)cc(Cl)c2)cc(-c2ccc(C(F)(F)F)cc2)c1 (centres unmarked) [Compound 2, 2-[5-(3,5-Dichloro-benzyl)-4′-trifluoromethyl-biphenyl-3-yl]-4-methyl-pentanoic acid] | 570 |
| CC(C)CC(C(=O)O)c1cc(/C=C/c2ccc(F)cc2)cc(-c2ccc(C(F)(F)F)cc2)c1 (centres unmarked) [Compound 18, 2-{5-[2-(4-Fluoro-phenyl)-vinyl]-4′-trifluoromethyl-biphenyl-3-yl}-4-methyl-pentanoic acid] | 390 |
| Cc1ccc(/C=C/c2cc(-c3ccc(C(F)(F)F)cc3)cc(C(CC(C)C)C(=O)O)c2)cc1 (centres unmarked) [Compound 16, 4-Methyl-2-[5-(2-p-tolyl-vinyl)-4′-trifluoromethyl-biphenyl-3-yl]-pentanoic acid] | 660 |
| CC(C)CC(C(=O)O)c1cc(CCc2ccc(Cl)cc2)cc(-c2ccc(C(F)(F)F)cc2)c1 (centres unmarked) [Compound 26, 2-{5-[2-(4-Chloro-phenyl)-ethyl]-4′-trifluoromethyl-biphenyl-3-yl}-4-methyl-pentanoic acid] | 740 |
| CC(C)CC(C(=O)O)c1cc(Cc2cc(F)cc(F)c2)cc(-c2ccc(C(F)(F)F)cc2)c1 (centres unmarked) [Compound 6, 2-[5-(3,5-Difluoro-benzyl)-4′-trifluoromethyl-biphenyl-3-yl]-4-methyl-pentanoic acid] | 740 |
| CC(C)CC(C(=O)O)c1cc(/C=C/c2ccc(C(F)(F)F)cc2)cc(-c2ccc(C(F)(F)F)cc2)c1 (centres unmarked) [Compound 15, 4-Methyl-2-{4′-trifluoromethyl-5-[2-(4-trifluoromethyl-phenyl)-vinyl]-biphenyl-3-yl}-pentanoic acid] | 400 |
| CC(C)CC(C(=O)O)c1cc(CCc2ccc(C(F)(F)F)cc2)cc(-c2ccc(C(F)(F)F)cc2)c1 (centres unmarked) [Compound 25, 4-Methyl-2-{4′-trifluoromethyl-5-[2-(4-trifluoromethyl-phenyl)-ethyl]-biphenyl-3-yl}-pentanoic acid] | 670 |
